Results on three molecules are retold here after patent publication US10995068B2, “Synthetic sphingolipid-like molecules, drugs, methods of their synthesis and methods of treatment” (The Regents of the University of California, priority 2015, dated 2021).

The test system of data set [1] is murine hematopoietic cell line FL5.12. The data set is described as follows: Viability of FL5.12 cells by vital dye exclusion. To be noted: Mus musculus; FL5.12 cells, 48 h, vital dye exclusion; n ≥3; read-out: IC50 (μM) [95% CI]. Type of data set: cell-based. In short, it runs like this:
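Murine FL5.12 hematopoietic cells were grown in RPMI 1640 with 10% FCS, 10 mM Hepes, 500 pg/ml IL-3, 55 μM β-mercaptoethanol and 2 mM L-glutamine at 0.1-0.5 million/ml. Viability was scored by vital dye exclusion, and IC50 values came from curve fitting.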

The target in another data set is T1, S1P receptor 3 (Homo sapiens, UniProt Q99500).
T1 construct: expressed in transfected cells
As to the kind of experiment: S1P receptor activation in CHO cells, S1P3. Type of data set: cell-based. To be noted: CHO cells over-expressing human S1P3. In short, it runs like this:
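CHO cells stably overexpressing each human S1P receptor subtype, serum-starved 24 h, then stimulated 10 min in serum-free DMEM with 0.1 mg/ml fatty-acid-free BSA ± compounds or S1P. Lysates analysed by Western blot for phospho-Thr202/Tyr204-p42/p44-MAPK and phospho-Ser PKC substrate, normalised to total p42/p44.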

Data set [2] can be described thus: Mass spectrometry quantification of SH-BC-893 in plasma and tumor. The format is in vivo. The following applies: SW620 xenograft mice, UPLC-MS/MS. Here is the method: In many embodiments, exemplary experimentation was carried out to determine whether azacyclic constrained sphingolipid-lipid molecules inhibited neoplastic growth in vivo. To carry out this experimentation, luciferase-expressing SW620 xenografts were generated in mice.
Mass spectrometry quantification of SH-BC-893. As an internal standard, 75 ng FTY720 was added to 50 μl plasma or 50 μl of tumor homogenate (0.25 M sucrose, 25 mM KCl, 50 mM Tris HCl, 0.5 mM EDTA, pH 7.4; 1:9 wt:volume) combined 1:1 with acetonitrile. Proteins were precipitated and removed by centrifugation (10 min at 15,000 rpm) and the supernatant transferred to a fresh tube on ice containing 50 μl of acetonitrile+0.2% acetic acid. After a second de-proteination with acetonitrile+0.2% acetic acid, 20 μl of de-proteinated samples were analyzed by UPLC-MS/MS using a Waters Micromass Quattro Premier XE equipped with a C18 reversed phase column (Waters) with an acetonitrile+0.2% acetic acid gradient elution. The instrument was operated in positive ion mode. Ion transition channels for multiple reaction monitoring were 290→104 for SH-BC-893 with a dwell time of 200 msec. The cone voltage was 30V. Standard curves used for quantitation were linear from 50-1000 ng/ml with an R^2 of 0.98 or greater. Recovery of internal standard was >80%. Tumor concentrations were calculated assuming that 1 gm=1 mL.

T1 sequence (Q99500 whole entry): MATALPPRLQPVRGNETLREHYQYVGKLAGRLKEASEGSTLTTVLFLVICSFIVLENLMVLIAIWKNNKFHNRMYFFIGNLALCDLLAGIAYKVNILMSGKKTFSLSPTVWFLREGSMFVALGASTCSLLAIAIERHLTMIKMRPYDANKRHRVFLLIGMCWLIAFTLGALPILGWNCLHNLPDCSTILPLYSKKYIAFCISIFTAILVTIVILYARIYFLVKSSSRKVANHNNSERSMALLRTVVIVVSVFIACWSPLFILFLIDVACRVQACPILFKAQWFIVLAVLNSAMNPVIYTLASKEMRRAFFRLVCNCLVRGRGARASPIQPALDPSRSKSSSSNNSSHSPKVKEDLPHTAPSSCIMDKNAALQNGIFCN

`CCCCCCCCc1ccc([C@H]2CCN[C@@H]2CO)cc1.Cl` [Compound 5, (2S,3R)-2-(hydroxymethyl)-3-(4-octylphenyl)Pyrrolidinium chloride]: the 50% inhibitory concentration (IC50) (commonly the midpoint of a concentration-inhibition curve) in data set [1] stood at 1.9 µM. The “activation of S1P receptor 3” value at S1P receptor 3 was “failed to activate”. In data set [2], the “concentration in plasma at sacrifice” value is listed as “low micromolar concentrations” and the “concentration in tumors at sacrifice” value is “low micromolar concentrations”.
For `CCCCCCCCc1ccc([C@@H]2CCN[C@H]2CO)cc1.Cl` [Compound 6], the “activation of S1P receptor 3” value on S1P receptor 3 is “failed to activate”.
For `CCCCCCCCc1ccc(CCC(N)(CO)CO)cc1.Cl` [FTY720, 2-Amino-2-[2-(4-octylphenyl)ethyl]propane 1,3-diol hydrochloride, reference compound], the IC50 in data set [1] is 2.4 µM.
